Laboratory results: ChEMBL document CHEMBL1201862, “PubChem BioAssay data set” (2004)
The source made the active and inactive calls. Cut-off read from the data, not from the text of the source, for most assays here: actives have a measured IC50 and inactives only a lower limit.

Legend:
Caspase-3 [1] = molecular target: T1, Caspase-3 (Homo sapiens, UniProt P42574); experiment: caspase-3 inhibitors as off-family protease, SAR follow-up, selectivity assay for SENP protease inhibitor project, biochemical, luminescence, set 2 (AID 588599); assay type: functional
T1 sequence (P42574 whole entry): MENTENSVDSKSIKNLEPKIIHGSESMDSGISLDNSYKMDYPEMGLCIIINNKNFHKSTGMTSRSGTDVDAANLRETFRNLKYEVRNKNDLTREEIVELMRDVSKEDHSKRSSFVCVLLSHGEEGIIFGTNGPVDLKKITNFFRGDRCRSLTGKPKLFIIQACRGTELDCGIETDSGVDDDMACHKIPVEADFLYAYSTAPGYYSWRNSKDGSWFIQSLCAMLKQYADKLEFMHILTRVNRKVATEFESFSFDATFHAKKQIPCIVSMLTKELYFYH

[2] = molecular target: T2, Sentrin-specific protease 7 (Homo sapiens, UniProt Q9BQF6); experiment: SENP7 protease inhibitors, SAR follow-up, biochemical, luminescence (AID 504497); assay type: functional
T2 sequence (Q9BQF6 whole entry): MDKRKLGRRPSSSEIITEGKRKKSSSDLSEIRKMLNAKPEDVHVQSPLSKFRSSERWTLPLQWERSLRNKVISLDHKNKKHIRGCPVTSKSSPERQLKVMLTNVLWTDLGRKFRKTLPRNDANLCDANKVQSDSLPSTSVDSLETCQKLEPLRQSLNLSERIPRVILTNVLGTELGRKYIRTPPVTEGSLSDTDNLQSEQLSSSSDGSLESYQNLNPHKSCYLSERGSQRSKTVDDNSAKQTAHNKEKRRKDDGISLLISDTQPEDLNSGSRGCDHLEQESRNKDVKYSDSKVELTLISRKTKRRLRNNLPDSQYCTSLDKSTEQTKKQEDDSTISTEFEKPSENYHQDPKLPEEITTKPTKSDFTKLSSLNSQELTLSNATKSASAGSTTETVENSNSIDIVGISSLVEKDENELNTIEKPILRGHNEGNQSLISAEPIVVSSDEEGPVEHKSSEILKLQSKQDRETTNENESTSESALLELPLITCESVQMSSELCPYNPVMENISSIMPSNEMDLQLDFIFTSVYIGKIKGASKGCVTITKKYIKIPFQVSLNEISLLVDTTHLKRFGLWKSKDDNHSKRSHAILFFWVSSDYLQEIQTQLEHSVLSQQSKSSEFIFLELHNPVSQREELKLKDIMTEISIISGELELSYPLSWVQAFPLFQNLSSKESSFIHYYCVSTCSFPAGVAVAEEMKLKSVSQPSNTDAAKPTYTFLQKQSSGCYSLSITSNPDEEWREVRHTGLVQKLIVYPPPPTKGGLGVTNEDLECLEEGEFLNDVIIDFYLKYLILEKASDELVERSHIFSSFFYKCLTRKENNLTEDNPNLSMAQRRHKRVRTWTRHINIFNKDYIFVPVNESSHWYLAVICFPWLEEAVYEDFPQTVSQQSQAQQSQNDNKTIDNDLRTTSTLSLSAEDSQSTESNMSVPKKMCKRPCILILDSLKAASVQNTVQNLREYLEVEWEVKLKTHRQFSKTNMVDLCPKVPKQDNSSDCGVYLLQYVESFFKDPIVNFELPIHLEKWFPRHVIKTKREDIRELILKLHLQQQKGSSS

[3] = molecular target: T3, Sentrin-specific protease 6 (Homo sapiens, UniProt Q9GZR1); experiment: SAR Analysis of small molecule inhibitors of Sentrin-specific protease 6 (SENP6) using a Luminescent assay. [Related pubchem assays (depositor defined):AID2582, AID2599]; assay type: functional
T3 sequence (Q9GZR1 whole entry): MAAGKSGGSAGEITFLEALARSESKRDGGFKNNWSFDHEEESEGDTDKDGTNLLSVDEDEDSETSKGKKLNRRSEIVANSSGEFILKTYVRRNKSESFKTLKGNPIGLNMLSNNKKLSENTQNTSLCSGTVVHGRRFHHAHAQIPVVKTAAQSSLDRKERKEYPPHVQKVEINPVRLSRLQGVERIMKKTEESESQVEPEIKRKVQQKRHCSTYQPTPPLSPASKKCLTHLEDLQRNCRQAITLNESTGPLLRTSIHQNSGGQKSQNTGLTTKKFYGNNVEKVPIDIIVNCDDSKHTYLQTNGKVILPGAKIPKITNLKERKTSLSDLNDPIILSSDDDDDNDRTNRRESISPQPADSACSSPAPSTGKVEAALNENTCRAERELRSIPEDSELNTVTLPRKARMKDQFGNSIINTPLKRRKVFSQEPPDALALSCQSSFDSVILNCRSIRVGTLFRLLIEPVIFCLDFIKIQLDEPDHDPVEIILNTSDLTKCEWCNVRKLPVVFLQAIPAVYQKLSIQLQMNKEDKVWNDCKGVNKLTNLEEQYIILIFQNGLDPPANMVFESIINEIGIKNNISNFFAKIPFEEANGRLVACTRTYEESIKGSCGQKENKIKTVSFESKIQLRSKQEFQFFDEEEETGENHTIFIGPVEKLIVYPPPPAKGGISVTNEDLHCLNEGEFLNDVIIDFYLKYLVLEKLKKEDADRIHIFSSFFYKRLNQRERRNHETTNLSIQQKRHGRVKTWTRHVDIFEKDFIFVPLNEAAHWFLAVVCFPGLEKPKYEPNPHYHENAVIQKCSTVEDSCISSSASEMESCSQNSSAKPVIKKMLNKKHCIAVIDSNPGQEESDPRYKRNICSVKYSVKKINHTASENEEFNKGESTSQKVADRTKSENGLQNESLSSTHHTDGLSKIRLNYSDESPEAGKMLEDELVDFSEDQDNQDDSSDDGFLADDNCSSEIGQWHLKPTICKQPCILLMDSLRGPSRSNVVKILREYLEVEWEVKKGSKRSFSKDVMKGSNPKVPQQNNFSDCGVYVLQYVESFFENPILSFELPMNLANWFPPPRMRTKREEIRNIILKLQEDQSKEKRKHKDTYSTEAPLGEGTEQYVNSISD

[4] = molecular target: T2, Sentrin-specific protease 7; experiment: SENP7 protease inhibitors, SAR follow-up, biochemical, luminescence, set 2 (AID 588600); assay type: functional
[5] = molecular target: T4, Sentrin-specific protease 8 (Homo sapiens, UniProt Q96LD8); experiment: SENP8 protease inhibitors, SAR follow-up, biochemical, luminescence, set 2 (AID 588601); assay type: functional
T4 sequence (Q96LD8 whole entry): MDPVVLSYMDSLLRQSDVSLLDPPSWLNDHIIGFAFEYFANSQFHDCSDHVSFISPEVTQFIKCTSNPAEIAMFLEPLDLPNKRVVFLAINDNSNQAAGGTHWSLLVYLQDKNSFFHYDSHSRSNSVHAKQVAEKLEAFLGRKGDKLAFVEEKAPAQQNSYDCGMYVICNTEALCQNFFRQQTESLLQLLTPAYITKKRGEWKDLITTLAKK

[6] = molecular target: T4, Sentrin-specific protease 8; experiment: SENP8 protease inhibitors, SAR follow-up, biochemical, luminescence (AID 504501); assay type: functional
[7] = molecular target: T3, Sentrin-specific protease 6; experiment: SENP6 protease inhibitors, SAR follow-up, biochemical, luminescence, set 2 (AID 588598); assay type: functional
Caspase-3 [8] = molecular target: T1, Caspase-3; experiment: SAR Analysis of small molecule inhibitors of Sentrin-specific proteases (SENPs) using a Caspase-3 Selectivity assay. [Related pubchem assays (depositor defined):AID2540, AID2599, AID434973, AID489001]; assay type: functional
[9] = A549 cell cytotoxicity, dose response, cytotoxicity control, plate reader, cherry-pick, antagonist series (AID 743412); assay type: functional, cell-based
[10] = molecular target: Latent membrane protein 1 (Human herpesvirus 4 (strain B95-8), UniProt P03230); experiment: TES1-eGFP NF-kB reporter inhibition versus Tet-On dsRED, dose response, selectivity assay for LMP1 NF-kB inhibitor project, imaging, HEK293T, dual-color eGFP/dsRED, cherry-picks (AID 588398); assay type: functional, cell-based
[11] = LGR2 antagonists, dose response, cell-based, HEK293, CRE-luciferase reporter, cherry pick, set 2 (AID 743343); assay type: functional;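 note: transfected cells were stimulated with diluted bursicon conditioned medium after compound addition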
HEK293 = experiment: inhibitors of LMP1-driven NF-kB reporter, dose response, cell-based, HEK293, luciferase, cherry-pick (AID 588343); assay type: functional; details: Homo sapiens
[12] = MC4R antagonists, dose response, counter-screen for LGR2 antagonist project, cell-based, plate reader, cherry pick (AID 743444); assay type: functional;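 note: transfected HEK 293 cells stimulated with alpha-MSH peptide; potency of inhibitors of the alpha-MSH evoked signal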
[13] = molecular target: T5, Nuclear receptor subfamily 0 group B member 1 (Homo sapiens, UniProt P51843); assay type: functional, cell-based;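 note: HEK293T cells transfected with SF-1 and DAX-1 plus StAR promoter luciferase reporter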
T5 sequence (P51843 whole entry): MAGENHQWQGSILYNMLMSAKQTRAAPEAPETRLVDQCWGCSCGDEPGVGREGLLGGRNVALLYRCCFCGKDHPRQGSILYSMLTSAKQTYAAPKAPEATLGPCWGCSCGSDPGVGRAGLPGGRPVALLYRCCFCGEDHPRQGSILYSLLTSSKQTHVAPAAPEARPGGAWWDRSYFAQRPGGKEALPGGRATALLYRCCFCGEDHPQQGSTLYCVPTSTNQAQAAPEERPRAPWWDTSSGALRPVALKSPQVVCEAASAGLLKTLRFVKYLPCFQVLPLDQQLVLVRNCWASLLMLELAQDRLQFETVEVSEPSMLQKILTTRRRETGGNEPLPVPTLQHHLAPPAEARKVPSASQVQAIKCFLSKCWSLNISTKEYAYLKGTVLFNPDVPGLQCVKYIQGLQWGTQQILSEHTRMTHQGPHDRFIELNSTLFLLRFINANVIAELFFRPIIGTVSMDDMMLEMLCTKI

cells = assay type: functional, cell-based

Latent membrane protein 1, sequence (P03230 whole entry): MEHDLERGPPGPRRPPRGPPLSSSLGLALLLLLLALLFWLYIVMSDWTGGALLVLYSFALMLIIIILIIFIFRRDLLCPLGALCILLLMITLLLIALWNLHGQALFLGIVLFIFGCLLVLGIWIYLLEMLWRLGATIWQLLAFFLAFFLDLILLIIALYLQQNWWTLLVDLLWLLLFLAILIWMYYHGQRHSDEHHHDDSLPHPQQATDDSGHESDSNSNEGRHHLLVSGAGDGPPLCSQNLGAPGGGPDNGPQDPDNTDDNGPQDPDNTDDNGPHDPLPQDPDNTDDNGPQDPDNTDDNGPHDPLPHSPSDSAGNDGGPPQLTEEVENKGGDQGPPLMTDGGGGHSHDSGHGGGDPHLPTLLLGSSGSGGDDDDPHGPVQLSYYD

O=C(Nc1nc2ccccc2s1)c1cccs1
active: IC50 (Caspase-3 [1]) 6.86 µM | IC50 [2] 2.5 µM | IC50 [4] 2.67 µM | IC50 [5] 2.2 µM | IC50 [7] 2.07 µM | IC50 (Caspase-3 [8]) 72 µM
inactive: IC50 [3] > 99 µM | IC50 [6] > 99 µM

c1ccc(-c2cn3c4c(sc3n2)CCCC4)cc1
inactive: IC50 [13] > 67.6 µM | IC50 (cells) > 67.6 µM
active: AC50 [9] 41.1 µM | AC50 [10] 31.6 µM | AC50 [11] 2.72 µM | AC50 (HEK293) 1.92 µM | AC50 [12] 4.25 µM
